The record followed here is PubChem BioAssay (NCI).

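These data come from cells grown in 96-well plates and exposed to compound for 48 hours at five concentrations. GI50: concentration for 50% inhibition of growth. TGI: total growth inhibition.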

Among the test systems are KM12 colon; IGROV1 ovarian; OVCAR-8 ovarian; SK-MEL-5 melanoma; UO-31 renal; U251 CNS; T-47D breast; HOP-62 NSCLC.
Common to all, as to assay: NCI tumour cell line growth inhibition, 48 h

For `Cc1cc(C2CC(O)C(CO)O2)c(Br)cc1Br` (centres undefined), the GI50 is over 100 µM with KM12 colon; 33.8 µM in the test on IGROV1 ovarian; over 100 µM with OVCAR-8 ovarian; over 100 µM with SK-MEL-5 melanoma; over 100 µM with UO-31 renal; over 100 µM with U251 CNS. The GI50 in the test on T-47D breast and in the test with HOP-62 NSCLC was over 100 µM each time. Also, the TGI in the test on KM12 colon, with IGROV1 ovarian, in the test on OVCAR-8 ovarian, in the test on SK-MEL-5 melanoma, with UO-31 renal and in the test on U251 CNS was over 100 µM in each case. Also, the TGI in the test with T-47D breast and in the test with HOP-62 NSCLC was over 100 µM throughout.

On to `Nc1nc(N)c2c(n1)NC(c1ccc(Cl)cc1)C1CCc3ccccc3C1=N2` (centres undefined), for which the GI50 was 8.48 µM in the test with KM12 colon; 6.16 µM in the test with IGROV1 ovarian; 10.8 µM in the test with OVCAR-8 ovarian; 0.497 µM in the test with SK-MEL-5 melanoma; 3.63 µM with UO-31 renal; 3.81 µM in the test with U251 CNS. Also, the GI50 in the test on T-47D breast was 4.09 µM; with HOP-62 NSCLC, 11.5 µM. In addition, the TGI with KM12 colon came to 20.8 µM; with IGROV1 ovarian it was 20.4 µM; in the test with OVCAR-8 ovarian it was 43.1 µM; with SK-MEL-5 melanoma, 2.02 µM; with UO-31 renal, 17.4 µM; with U251 CNS, 16.3 µM. The figures for the TGI with T-47D breast and in the test on HOP-62 NSCLC were 17.8 µM and 23.7 µM, respectively.

For `c1ccc2c(c1)CCCc1nnc3nc4ccccc4n3c1-2`, the GI50 is 5.37 µM in the test with KM12 colon; 2.88 µM in the test with IGROV1 ovarian; 5.02 µM in the test on OVCAR-8 ovarian; 4.89 µM in the test with SK-MEL-5 melanoma; 3.08 µM in the test on UO-31 renal; 3.29 µM with U251 CNS. For the same compound, the GI50 was 5.49 µM with T-47D breast and 4.73 µM with HOP-62 NSCLC. The TGI in the test on KM12 colon was 27.6 µM; in the test with IGROV1 ovarian, over 100 µM; in the test with OVCAR-8 ovarian it was 74.1 µM; in the test with SK-MEL-5 melanoma, over 100 µM; with UO-31 renal it was 30.5 µM; in the test on U251 CNS, 24.1 µM. The TGI with T-47D breast and with HOP-62 NSCLC was over 100 µM in each case.

With `Cc1ccccc1N=C(c1ccccc1)C1C(=O)c2ccccc2C1=O`, the GI50 was 10.7 µM in the test on KM12 colon; 10.7 µM in the test on IGROV1 ovarian; 15 µM in the test on OVCAR-8 ovarian; 2.41 µM in the test on SK-MEL-5 melanoma; 4.14 µM in the test on UO-31 renal; 24.6 µM in the test with U251 CNS. Moreover, the values for the GI50 in the test with T-47D breast and in the test with HOP-62 NSCLC were 4.12 µM and 18.2 µM, respectively. Besides, the TGI was 30.8 µM with KM12 colon; 39.4 µM in the test with IGROV1 ovarian; over 100 µM with OVCAR-8 ovarian; 13.3 µM in the test on SK-MEL-5 melanoma; 47.4 µM with UO-31 renal; over 100 µM in the test with U251 CNS. The TGI in the test on T-47D breast stood at 36.5 µM; in the test on HOP-62 NSCLC, 63.9 µM.

`C=C1[C@H](O)C[C@@H](C(C)C(O)CC=C(C)C)[C@@H](O)[C@@H]2C(C)=CC[C@@H]12` (some centres undefined): the GI50 in the test with KM12 colon, with IGROV1 ovarian, with OVCAR-8 ovarian, with SK-MEL-5 melanoma, with UO-31 renal and in the test on U251 CNS was over 100 µM each time. The GI50 with T-47D breast and in the test with HOP-62 NSCLC was over 100 µM throughout. Moreover, the TGI with KM12 colon, in the test with IGROV1 ovarian, in the test with OVCAR-8 ovarian, in the test on SK-MEL-5 melanoma, with UO-31 renal and with U251 CNS was over 100 µM throughout. Moreover, the TGI in the test on T-47D breast and in the test with HOP-62 NSCLC was over 100 µM each time.

In the case of `C=C1C(=O)O[C@H]2[C@H]1CC/C(COC(=O)NCCc1ccc(Br)cc1)=C\CC[C@@]1(C)O[C@@H]21`, the GI50 was 1.95 µM with KM12 colon; 1.08 µM in the test with IGROV1 ovarian; 1.49 µM in the test with OVCAR-8 ovarian; 1.71 µM in the test on SK-MEL-5 melanoma; 1.55 µM with UO-31 renal; 1.4 µM in the test with U251 CNS. The GI50 in the test with T-47D breast was 1.38 µM; in the test on HOP-62 NSCLC it was 1.99 µM. Besides, the TGI was 4.46 µM with KM12 colon; 2.59 µM with IGROV1 ovarian; 3.69 µM in the test on OVCAR-8 ovarian; 3.22 µM in the test with SK-MEL-5 melanoma; 2.95 µM in the test on UO-31 renal; 2.75 µM in the test with U251 CNS. For the same compound, the TGI in the test with T-47D breast is 3.72 µM; with HOP-62 NSCLC, 4.4 µM.

Turning to `COc1cccc(/C=C/C(=O)c2cc3c(N)c(C(=O)Nc4ccccc4)sc3nc2C)c1`, the GI50 with KM12 colon is 0.988 µM; in the test on IGROV1 ovarian it was 0.954 µM; with OVCAR-8 ovarian it was 1.63 µM; in the test on SK-MEL-5 melanoma it was 1.48 µM; in the test with UO-31 renal, 0.842 µM; with U251 CNS it was 0.897 µM. Moreover, the GI50 with T-47D breast was 1.24 µM; in the test with HOP-62 NSCLC, 1.09 µM. In addition, the TGI with KM12 colon was 2.23 µM; in the test with IGROV1 ovarian it was 2 µM; with OVCAR-8 ovarian, over 50 µM; in the test on SK-MEL-5 melanoma, 5.53 µM; in the test with UO-31 renal, 1.62 µM; with U251 CNS it was 1.72 µM. Moreover, the TGI in the test with T-47D breast came to 3.89 µM; in the test on HOP-62 NSCLC, 2.44 µM.

As to `CCN1C(=O)N(CC)C2C1NN=c1s/c(=C\c3ccc(Br)cc3)c(=O)n12` (centres undefined), the GI50 in the test on KM12 colon is 0.0604 µM; in the test with IGROV1 ovarian, 0.275 µM; with OVCAR-8 ovarian, 0.416 µM; in the test on SK-MEL-5 melanoma it was 0.118 µM; with UO-31 renal it was 1.51 µM; in the test with U251 CNS it was 0.18 µM. The values for the GI50 in the test on T-47D breast and in the test on HOP-62 NSCLC were 5.11 µM and 0.305 µM, respectively. For the same compound, the TGI in the test on KM12 colon is over 100 µM; in the test with IGROV1 ovarian, over 82.2 µM; in the test on OVCAR-8 ovarian, over 100 µM; in the test with SK-MEL-5 melanoma, 1.84 µM; in the test on UO-31 renal, over 100 µM; with U251 CNS it was over 54.2 µM. Further, the TGI in the test with T-47D breast and in the test on HOP-62 NSCLC was over 100 µM throughout.

`COc1cc(/C=C/[N+](=O)[O-])cc(OC)c1`: the GI50 was 3.08 µM in the test on KM12 colon; 2.83 µM with IGROV1 ovarian; 3.72 µM in the test with OVCAR-8 ovarian; 1.97 µM in the test with SK-MEL-5 melanoma; 1.78 µM in the test with UO-31 renal; 2.22 µM with U251 CNS. For the same compound, the results for the GI50 with T-47D breast and in the test on HOP-62 NSCLC were 2.17 µM and 2.93 µM, respectively. For the same compound, the TGI in the test on KM12 colon amounted to 10.5 µM; in the test with IGROV1 ovarian it was 8.63 µM; in the test on OVCAR-8 ovarian it was 13.9 µM; with SK-MEL-5 melanoma, 4.03 µM; with UO-31 renal it was 3.4 µM; with U251 CNS, 5.48 µM. Also, the results for the TGI in the test with T-47D breast and in the test with HOP-62 NSCLC were 7.03 µM and 10.4 µM, respectively.
